Measurements reported in patent US12435081B2, “Methods of treatment using BCN057 and BCN512” (BCN Biosciences L.L.C., priority 2019, dated 2025).

Key:
[1] = Solubility in aqueous formulations; assay type: physicochemical; details: 30 wt % Captisol (SBE-beta-CD) and 100 mM MSA, at up to pH 4.1 or higher
[2] = system: Panc-1 cells; experiment: RealTime-Glo Annexin V Apoptosis and Necrosis Assay; assay type: cell-based
Protocol: FIGS. 2A and 2B depict the Annexin V Apoptosis and Necrosis Assay in Panc-1 cells. Panc-1 cells were exposed to serial dilutions of 057 in the presence or absence of the RealTime-Glo™ Annexin V Apoptosis and Necrosis Assay Reagent. The plate was incubated at 37° C./5% CO2 and luminescence (Annexin V binding) was measured over a period of 6 hours.

[3] = system: pancreatic cancer cell lines; experiment: Imaging of pancreatic cancer cell lines over time; assay type: cell-based; details: 10 uM, time 0 to 240 minutes
Protocol: FIG. 3 depicts the Effects of 10 uM BCN057 on the viability of pancreatic cancer cell lines. The images show pancreatic cancer cell lines at time 0 (FIG. 3A), 15 minutes (FIG. 3B), 30 minutes (FIG. 3C), 60 minutes (FIG. 3D), 120 minutes (FIG. 3E) and 240 minutes (FIG. 3F).

[4] = system: pancreatic cancer cell lines; experiment: ATP Lite viability assay of pancreatic cancer cell lines; assay type: cell-based
Protocol: FIG. 1 depicts the Effects of 5-FU and BCN057 on the viability of pancreatic cancer cell lines. The Effects of 5-FU and BCN057 on the viability of pancreatic cancer cell lines were assessed by ATP Lite assay (Perkin Elmer). 50 uM 5Fu (5Fu, n=5), 50 uM 5Fu and 2, 5, 10, and 20 uM BCN057 (5Fu+BCN057, n=5) or 2, 5, 10.20 uM CN057 (CN057, n=5). Control cells (V, n=5) The Percent Phosphorylation was calculated by dividing the average value for each condition by the average value of the control cells (V) at each time point.
FIGS. 4A and 4B show Compound H, Compound K and the results of a Viability Assay on Pancreatic Cells. […] The numeric data is also included (FIG. 4B). FIG. 5A depicts Compound H and FIG. 5B depicts Compound K.

[5] = system: Wnt activity; experiment: TOPFLASH assay of exosomes purified from lung organoid conditioned medium; assay type: cell-based, mice; details: irradiated organoids treated with BCN512 compared to irradiated control
Protocol: If BCN512 and related structures inhibit the activity of SRFPs, BCN512 can allow more free Wnt ligand from epithelial cells. Free Wnt ligands are secreted and transported through exosomes. To determine the role of BCN512 in pulmonary epithelium derived Wnt release, exosomes were purified from organoid conditioned medium. Purified exosomes were tested for Wnt activity by the TOPFLASH assay.
Wnt activity has also been examined in exosomes derived from human lung organoids.

[6] = system: Wnt activity; experiment: TOPFLASH assay of exosomes purified from human lung organoid conditioned medium; assay type: cell-based; details: human lung organoids irradiated (4-6 Gy), treated with BCN512, compared to irradiated control
Protocol: For the role of BCN512 in human pulmonary epithelium derived Wnt release, exosome were purified from organoid conditioned medium. Purified exosomes were tested for Wnt activity by TOPFLASH assay.

[7] = system: HEK293 cells having a TCF/LEF luciferase reporter construct; experiment: TCF/LEF luciferase reporter assay of canonical WNT activity; assay type: cell-based; details: after 24 hours, compared with vehicle treated cells
Protocol: These studies and observations are consistent with previous observations, specifically that WNT-catenin signaling promotes the self-renewal and differentiation of LGR5+ epithelial (lung, oral, intestinal) stem cells. Canonical WNT activity was measured in HEK293 cells having a TCF/LEF luciferase reporter construct. Luciferase activity was measured after 24 hours.

[8] = system: lung fibrosis; experiment: Fibrotic lesions in lung sections; assay type: in vivo; details: BCN512 treated (20×512) vs. vehicle (20×V), C57BL mice, day 180, five mice per group
Source text: Lesions were defined by local density with five mice per group assessed at day 180. This effect is observed with non-radiation induced stimuli such as LPS and cytotoxic drugs.

[9] = system: TGFβ; experiment: Histopathology of lung and cardiac muscle sections stained for TGFβ after thoracic radiation; assay type: in vivo, C57M Male mice
Protocol: Transforming growth factor β (TGF-β) is a central mediator of fibrogenesis. […] TGFβ is reduced when treated for the first 20 days post radiation with BCN512 at 5 mg/kg. Images D-F are cardiac muscle stains under the identical parameters above from the same animals. […] We expect the same results using non-radiation induced stimuli including LPS and cytotoxic drugs.

Row | solubility [1] | Compound | fluorescence (necrosis) ([2]; over the same 6 hour period) | apoptosis (luminescence, Annexin V binding) ([2]; serial dilutions, measured over 6 hours) | morphological changes and apoptosis [3] | antineoplastic activity / proliferation of the tumor cell line [4] | exosomal Wnt activity [5] | exosomal Wnt activity [6] | luciferase activity [7] | lung fibrosis (number of fibrotic lesions in lung sections) [8] | TGFβ staining in lung sections ([9]; 14Gy thoracic radiation, 5 mg/kg for the first 20 days post radiation, assessed on day 90) | TGFβ staining with non-radiation induced stimuli ([9]; non-radiation induced stimuli including LPS and cytotoxic drugs) | TGFβ staining in cardiac muscle ([9]; same animals and parameters: 14Gy thoracic radiation, 5 mg/kg for first 20 days, day 90)
1 | excellent solubility | COc1ccc2cc(-c3nc4ccc(C)cn4c3NCc3ccco3)c(=O)[nH]c2c1 [BCN057, (3-[(Furan-2-ylmethyl)-amino]-2-(7-methoxy-2-oxo-1,2-dihydro-quinolin-3-yl)-6-methyl-imidazo[1,2-a]pyridin-1-ium)] | No change | increase with increasing concentrations | particularly apparent at 240 minutes | inhibits the proliferation of the tumor cell line |  |  |  |  |  |  | 
2 |  | O=[N+]([O-])c1ccc([S@SP3](=O)(=O)N2CCN(c3ccccc3)CC2)cc1 [BCN512, 1-[(4-nitrobenezene)sulfonyl]-4-phenyl piperazine] |  |  |  |  | several folds higher | several folds high | significantly increased | significant reduction | reduced | same results | significant reduction
